According to article PMC5706701, “Development of a homogenous high-throughput assay for inositol hexakisphosphate kinase 1 activity” (PLoS ONE, 2017):
Counter-ions that a name gives are not always drawn. Like-named read-outs stand apart in the source and are kept apart here.

Target: T1, Human IP6K1 (Homo sapiens, UniProt Q92551)
T1 construct: GST (N, cleaved yes); made in house; host or cells: C43 E. coli, pGEX-6P-2
Assay: IP6K1 high-throughput screen of the Sigma LOPAC (ADP-Glo Max, single point);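 further: final compound concentration 10µM in 5% DMSO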
Type: biochemical

[1] = LOPAC single-point screen, ADP-Glo Max raw signal per well
[2] = LOPAC single-point screen, Z-score from raw signal with plate average and StDev
[3] = LOPAC single-point screen, Z-score against plate average and StDev
[4] = LOPAC single-point screen, ADP-Glo Max luminescence raw signal per well
[5] = LOPAC single-point screen, Z-score relative to plate average and StDev
[6] = LOPAC single-point screen, Z-score from plate average and StDev
[7] = Sigma LOPAC single-point screen, ADP-Glo Max raw signal per well
[8] = Sigma LOPAC single-point screen, Z-score from plate average and StDev

T1 sequence (Q92551 whole entry): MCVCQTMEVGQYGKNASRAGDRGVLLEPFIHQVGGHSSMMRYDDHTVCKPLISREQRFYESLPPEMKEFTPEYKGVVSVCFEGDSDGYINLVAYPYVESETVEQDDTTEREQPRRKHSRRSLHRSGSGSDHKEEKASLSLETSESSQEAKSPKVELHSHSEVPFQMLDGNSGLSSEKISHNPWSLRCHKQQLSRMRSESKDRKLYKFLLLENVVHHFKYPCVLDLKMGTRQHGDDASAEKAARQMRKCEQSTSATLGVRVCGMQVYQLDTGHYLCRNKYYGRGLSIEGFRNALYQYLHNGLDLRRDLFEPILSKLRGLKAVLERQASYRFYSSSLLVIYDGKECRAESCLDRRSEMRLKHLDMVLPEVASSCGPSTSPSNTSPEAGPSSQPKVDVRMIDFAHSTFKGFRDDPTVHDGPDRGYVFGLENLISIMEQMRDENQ

Compound: Oc1cc2c(cc1O)[C@H]1c3ccccc3CN[C@@H]1CC2 (racemic) [Dihydrexidine hydrochloride]
- Raw Signal [1]: 53851
- Z-score [2]: -0.2673

Compound: Br.NCc1cc(O)no1 [Muscimol hydrobromide]
- Raw Signal [1]: 54732
- Z-score [3]: -0.08835

Compound: CN1CCN(CC/C=C2/c3ccccc3Sc3ccc(S(=O)(=O)N(C)C)cc32)CC1.Cl [Thiothixene hydrochloride]
- Raw Signal [4]: 52919
- Z-score [5]: -0.6032

Compound: NCCCP(=O)(O)O [3-Aminopropylphosphonic acid]
- Raw Signal [1]: 56234
- Z-score [2]: -0.2957

Compound: N=C(N)N1CCc2ccccc2C1 [Debrisoquin sulfate]
- Raw Signal [4]: 61933
- Z-score [6]: 1.3741

Compound: NCC1(CC(=O)O)CCCCC1 [Gabapentin]
- Raw Signal [4]: 51688
- Z-score [5]: -0.7066

Compound: Nc1nc(OCc2ccccc2)c2nc[nH]c2n1 [O6-benzylguanine]
- Raw Signal [1]: 56623
- Z-score [2]: -0.2272

Compound: O=C(O)CN(CCN(CC(=O)O)CC(=O)O)CCN(CC(=O)O)CC(=O)O [Diethylenetriaminepentaacetic acid]
- Raw Signal [1]: 53021
- Z-score [2]: -0.4358

Compound: MDL 26,630 trihydrochloride
- Raw Signal [1]: 53612
- Z-score [2]: -0.1313

Compound: CC(=O)NNC(=O)N1Cc2ccccc2Oc2ccc(Cl)cc21 [SC 19220]
- Raw Signal [7]: 57783
- Z-score [8]: 0.3418

Compound: O=C(O)c1cc(O)cc(C(=O)O)n1 [Chelidamic acid]
- Raw Signal [1]: 56074
- Z-score [2]: -0.3239

Compound: N=C(N)NC(=O)c1nc(Cl)c(N)nc1N [Amiloride hydrochloride]
- Raw Signal [7]: 63890
- Z-score [8]: 1.0527

Compound: CCCCCC(O)CCCC(=O)O.[Na] (stereo not shown) [5-hydroxydecanoic acid sodium]
- Raw Signal [1]: 53435
- Z-score [2]: -0.3518

Compound: Cl.c1ccc(CN(CC2=NCCN2)c2ccccc2)cc1 [Antozoline hydrochloride]
- Raw Signal [4]: 54212
- Z-score [5]: -0.6519

Compound: CCCN1CCC[C@H](c2cccc(O)c2)C1.Cl [R(+)-3PPP hydrochloride]
- Raw Signal [4]: 50646
- Z-score [5]: -1.045

Compound: Cc1nnc2ccc(-c3cccc(C(F)(F)F)c3)nn12
- Raw Signal [1]: 54310
- Z-score [3]: -0.01403

Compound: O=C(CCc1ccc(O)cc1)c1c(O)cc(O)cc1O [Phloretin]
- Raw Signal [7]: 58655
- Z-score [8]: 0.5112

Compound: CN[C@@H]1C[C@@H](c2ccc(Cl)c(Cl)c2)c2ccccc21 [Indatraline hydrochloride]
- Raw Signal [1]: 53926
- Z-score [3]: -0.07855

Compound: NC(=O)c1cc(N2CC2)c([N+](=O)[O-])cc1[N+](=O)[O-] [CB 1954]
- Raw Signal [1]: 55279
- Z-score [2]: -0.4639

Compound: Br.C[N+](C)(C)CCCCCNCC12CC3CC(CC(C3)C1)C2.[Br-] [IEM-1460]
- Raw Signal [1]: 53178
- Z-score [2]: -0.404

Compound: CCCNCC(O)COc1ccccc1C(=O)CCc1ccccc1 (stereo not shown) [Propafenone hydrochloride]
- Raw Signal [1]: 54187
- Z-score [3]: -0.0347

Compound: NC(=O)NO [Hydroxyurea]
- Raw Signal [4]: 51854
- Z-score [5]: -0.6728

Compound: COc1ccccc1OCC(O)CN1CCN(CC(=O)Nc2c(C)cccc2C)CC1 (stereo not shown) [Ranolazine dihydrochloride]
- Raw Signal [1]: 54866
- Z-score [2]: -0.2249

Compound: Br.C=CCN1CCc2c(cc(O)c(O)c2Cl)C(c2ccccc2)C1 (racemic) [(±)-Chloro-APB hydrobromide]
- Raw Signal [7]: 58189
- Z-score [8]: 0.6137

Compound: CC[N+](CC)(CC)CCOc1ccc(/C=C/c2ccccc2)cc1 [MG 624]
- Raw Signal [7]: 57360
- Z-score [8]: 0.4984

Compound: COc1ccc(CN(CCN(C)C)c2ccccn2)cc1 [Pyrilamine maleate]
- Raw Signal [7]: 60252
- Z-score [8]: 0.9844

Compound: CCCn1c(=O)c2[nH]c(-c3ccc(OCC(=O)Nc4ccc(C#N)cc4)cc3)nc2n(CCC)c1=O [MRS 1754]
- Raw Signal [4]: 66198
- Z-score [6]: 1.983

Compound: Nc1nc(SCc2ccc([N+](=O)[O-])cc2)c2ncn([C@@H]3O[C@H](CO)[C@@H](O)[C@H]3O)c2n1 [S-(4-Nitrobenzyl)-6-thioguanosine]
- Raw Signal [7]: 63053
- Z-score [8]: 0.9053

Compound: CCC(=O)N1CCN(C(=O)c2ccccc2)CC1 [DM 235]
- Raw Signal [1]: 55630
- Z-score [3]: 0.09402

Compound: Cc1cccc(C)c1N=C1NCCCS1 [Xylazine hydrochloride]
- Raw Signal: 56727
- Z-score: 0.1366

Compound: CCn1cc(C(=O)O)c(=O)c2cc3c(cc21)OCO3 [Oxolinic acid]
- Raw Signal [7]: 60270
- Z-score [8]: 0.9874

Compound: Cc1[nH]c(=O)c(C#N)cc1-c1ccncc1 [Milrinone]
- Raw Signal [1]: 53863
- Z-score [3]: -0.08914
